The results in this text go back to US20040023909A1, “Process for preventing or reducing undesirable immunological effects to infectious agents in subjects” (Enzo Therapeutics, Inc, priority 1997, published 2004).

This test has as its system U937 cells. Kind of test: Delivery of labeled BSA to cells (fluorescent microscope). The format is cell-based. The note with it: for Cells displaying fluorescense: overnight at 37° C. The procedure: U937 cells were grown to approximately 10^6/ml and centrifuged, washed in growth medium (RPMI), suspended in 3.5 ml of RPMI, and 0.8 ml was placed in each of four 35 mm wells. BSA-BF and BSA-F, each at a concentration of 20 mg/ml, were added to the four wells together with 200 ul of RPMI as follows:
The cell suspensions were incubated overnight at 37° C. One ml of cell suspension was placed in 2.0 ml of RPMI and centrifuged at 1000 rpm for 5 minutes. The supernatants were decanted and the cells were resuspended in 200 ul of RPMI. Samples of each cell suspension were placed on a microscope slide and examined using a fluorescent microscope.

Regarding “BSA-BF: Bovine Serum Albumin labeled by conjugation with both biotin and fluorescein”, the “Localisation of fluorescense in cells undergoing mitosis” value is reported as “bright fluorescense that was confined to the nuclei”. Where the note is “20 ul of 20 mg/ml”, the Cells displaying fluorescense result was “Approximately 40%”. Also, the Cells displaying fluorescense entry (50 ul of 20 mg/ml) is “Approximately 40%”.
With “BSA-F: Bovine Serum Albumin labeled with fluourescein alone [reference compound]”, the Cells displaying fluorescense reads like this: (20 ul of 20 mg/ml) under 5%; (50 ul of 20 mg/ml) under 5%.
